Experimental data: US10370644B2, “Method for making human pluripotent suspension cultures and cells derived therefrom” (Janssen Biotech, Inc., priority 2012, dated 2019)

Assays:
Type in all cases: cell-based
[1] = tested on: Clusters from pluripotent human embryonic stem cell line H1 (NIH code: WA01); experiment: Cell viability of clusters treated with MCX in suspension culture; details: MCX at concentrations above 4 μM
Experimental: Clusters from pluripotent human embryonic stem cell line H1 (NIH code: WA01) were seeded at cell densities ranging from 0.25×10^6 to 2×10^6 cells/ml in Erlenmeyer/shaker flasks or spinner flasks in stage 1 basal media as described in Example 9. Clusters were treated with stage 1 basal medium containing 1.5, 2, 3, or 4 μM MCX on day one of differentiation and with fresh stage 1 basal medium containing 100 ng/ml GDF-8 on day 2. No media exchange was performed on day three. Samples were collected for flow cytometry and PCR analysis at the end of day three of differentiation.
The efficiency with which definitive endoderm was generated was then determined by measuring the percentage of cells expressing the cells surface markers CXCR4, CD99 and CD9 using flow cytometry. […] However, by increasing BSA concentrations, the effects of MCX can be modulated such that concentrations≥4 micromolar may be used. Conversely, concentrations≤1.5 micromolar may be used to generate definitive endoderm when used with lower BSA concentrations.

[2] = tested on: Clusters from pluripotent human embryonic stem cell line H1 (NIH code: WA01); experiment: EdU incorporation and cell cycle stage (G0/G1, S, G2/M) by flow cytometry during definitive endoderm differentiation; details: for cells in G0/G1 of the cell cycle: 48 hours after initiation of differentiation; for percentage of cells with EdU incorporation (mean of GDF8, WNT-3A, WNT-3A+Activin A and neat medium) / average decrease in the number of cells in G0/G1 (GDF8, WNT-3A, WNT-3A+Activin A and neat medium): six hours after the initiation of differentiation; for percentage of cells with EdU incorporation (mean of GDF8, WNT-3A, WNT-3A+Activin A and neat medium): SD ±1.2; for average decrease in the number of cells in G0/G1 (GDF8, WNT-3A, WNT-3A+Activin A and neat medium): Standard Deviation ±5%
Experimental: (§1) Clusters from pluripotent human embryonic stem cell line H1 (NIH code: WA01) were seeded at 0.5×10^6 cells/ml in Erlenmeyer shaker flasks in MCDB-131 medium containing […] sodium bicarbonate and 5.5 mM glucose (Catalog #A13051 DJ, Invitrogen, CA), which was supplemented with 2% fatty acid free BSA (Catalog #68700, Proliant, Iowa), 1× GlutaMAX™ (Catalog #35050-079, Invitrogen, CA), an additional 2.5 mM glucose (Catalog #G8769, Sigma) and ITS-X at 1:50,000 stock concentration (Catalog #51500056, Invitrogen, CA). MCDB-131 medium supplemented in this manner will be referred to as stage 1 basal medium or “Neat” medium for the purposes of this example. The GSK3B inhibitor, 14-Prop-2-en-1-yl-3,5,7,14,17,23,27-heptaazatetracyclo[19.3.1.1-2,6˜.1˜8,12˜]heptacosa-1(25),2(27),3,5,8(26),9,11,21,23-nonaen-16-one, U.S. patent application Ser. No. 12/494,789; incorporated herein by reference in its entirety will be referred to as “MCX”.
(§2) Clusters were treated on the first day of differentiation with one of six conditions: (1) Neat, (2) 3 μM MCX plus 100 ng/ml GDF-8 (Catalog #120-00, Peprotech), (3) 3 μM MCX only, (4) 100 ng/ml GDF-8 only, (5) 20 ng/ml WNT-3A (Catalog #1324-WN-002, R&D Systems, MN) plus 100 ng/ml Activin A (Catalog #338-AC, R&D Systems, MN), or (6) 20 ng/ml WNT-3A only.
(§3) Media in each of the conditions was changed at 24 and 48 hours after the initiation of differentiation. At these times, cells in conditions 1, 2, 3, and 4 were changed to fresh stage 1 basal media supplemented with 100 ng/ml GDF8 while cells in conditions 5 and 6 were changed to fresh stage 1 basal media supplemented with 100 ng/ml Activin A.
One hour prior to initiation of differentiation, and 5, 23, 29, 47, or 71 hours after the initiation of differentiation (referred to as “Time 0”), suspension samples were transferred to a non-tissue culture treated six well dish and incubated with EdU (Click-iT® EdU Kit, Life Technologies Corporation, Carlsbad, Calif.) for one hour. The EdU incubated cells were then assessed by flow cytometry at times 0, 6, 24, 30, 48, or 72 hours after initiation of differentiation to measure the percentage of cells in G0/G1, S, or G2/M stages of the cell cycle (FIGS. 81-87).

[3] = tested on: Clusters from pluripotent human embryonic stem cell line H1 (NIH code: WA01); experiment: Efficiency of definitive endoderm generation: percentage of cells expressing CXCR4 (CD184), CD99 and CD9 by flow cytometry after 3 days of differentiation in suspension culture; details: for CD9 (% by FACS) / CD184 (% by FACS) / CD99 (% by FACS): end of day three
Experimental: Clusters from pluripotent human embryonic stem cell line H1 (NIH code: […] MCDB-131 medium supplemented in this manner will be referred to as “stage 1 basal medium” for the purposes of this application. […] No. 12/494,789; incorporated herein by reference in its entirety) and 100 ng/ml GDF-8 (Catalog #120-00, Peprotech), or 3 μM MCX only, or 20 ng/ml WNT-3A (Catalog #1324-WN-002, R&D Systems, MN) plus 100 ng/ml Activin A (Catalog #338-AC, R&D Systems, MN) or 20 ng/ml WNT-3A only. On day two, cells were transferred to fresh stage 1 basal media supplemented with either 100 ng/ml GDF8 or 100 ng/ml Activin A. Samples were collected for flow cytometry, PCR and Western Blot analysis at various time points ranging from time zero (immediately before addition of basal media plus supplements) up to 72 hours after beginning differentiation. The efficiency with which definitive endoderm was generated was determined after 3 days of differentiation under each condition by measuring the percentage of cells expressing the cells surface markers CXCR4, CD99 and CD9 using flow cytometry. […] Clusters from pluripotent human embryonic stem cell line H1 (NIH code: WA01) were seeded at cell densities ranging from 0.25×10^6 to 2×10^6 cells/ml in Erlenmeyer/shaker flasks or spinner flasks in stage 1 basal media as described in Example 9. Clusters were treated with stage 1 basal medium containing 1.5, 2, 3, or 4 μM MCX on day one of differentiation and with fresh stage 1 basal medium containing 100 ng/ml GDF-8 on day 2. No media exchange was performed on day three. Samples were collected for flow cytometry and PCR analysis at the end of day three of differentiation. The efficiency with which definitive endoderm was generated was then determined by measuring the percentage of cells expressing the cells surface markers CXCR4, CD99 and CD9 using flow cytometry. […] However, by increasing BSA concentrations, the effects of MCX can be modulated such that concentrations≥4 micromolar may be used. Conversely, concentrations≤1.5 micromolar may be used to generate definitive endoderm when used with lower BSA concentrations. The example was carried out to determine whether GlutaMAX™ supplementation was required for generation of definitive endoderm by suspending clusters in stage 1 basal media (described in Example 9) plus or minus GlutaMAX™, which was supplemented with 3 μM MCX on day one of differentiation and with fresh stage 1 basal medium containing 100 ng/ml GDF-8 on day 2. No media exchange was performed on day three. Samples were collected for flow cytometry and PCR analysis at the end of day three of differentiation. The efficiency with which definitive endoderm was generated was determined under each condition by measuring the percentage of cells expressing the cells surface markers CXCR4, CD99 and CD9 using flow cytometry. Clusters from pluripotent human embryonic stem cell line H1 (NIH code: […] Clusters were treated with stage 1 basal medium containing MCX and GDF-8 as described in Example 12. Samples were collected for flow cytometry at the end of day three of differentiation. Phase contrast images were also captured on each day of differentiation. The efficiency with which definitive endoderm was generated was then determined by measuring the percentage of cells expressing the cells surface markers CXCR4, CD99 and CD9 using flow cytometry. The data is shown in FACS plots in FIGS. 44 A&B and summarized in Table 17. […] In addition, it was observed that differences in bicarbonate levels correlated with differences in cluster morphologies at the end of stage 1, as observed by phase contrast microscopy (FIGS. 44 C&D). Also, cells differentiated under high bicarbonate levels were noted to form looser clusters than cells differentiated in 2.43 g/L of bicarbonate.

[4] = tested on: Clusters from pluripotent human embryonic stem cell line H1 (NIH code: WA01); experiment: qRT-PCR gene expression, fold versus undifferentiated cells, 0-72 hours of differentiation (Example 15)
Experimental: as §1, §2, §3
However, consistent with the differences in cell cycle observed through the process of forming definitive endoderm, intermediate differences in gene expression were seen. […] (FIGS. 88c and e).

[5] = 6 hours following initiation of differentiation
[6] = 1.5 μM MCX on day one, 100 ng/ml GDF-8 on day 2
[7] = 2 μM MCX on day one, 100 ng/ml GDF-8 on day 2
[8] = 3 μM MCX on day one, 100 ng/ml GDF-8 on day 2
[9] = 4 μM MCX on day one, 100 ng/ml GDF-8 on day 2
[10] = 2.43 g/L Sodium bicarbonate in modified stage 1 basal media, MCX and GDF-8
[11] = 3.64 g/L Sodium bicarbonate in stage 1 basal media, MCX and GDF-8

C=CCN1CC(=O)NCCCc2cncc(c2)-c2ncnc(n2)Nc2cccc(c2)C1 [MCX, 14-Prop-2-en-1-yl-3,5,7,14,17,23,27-heptaazatetracyclo[19.3.1.1˜2,6-˜0.1˜8,12.˜]heptacosa-1(25),2(27),3,5,8(26),9,11,21,23-non-aen-16-one]
effect on cell viability [1]: decreased cell viability | increase in G0/G1 cells [2, 5]: 54% | reduction in the incorporation of EdU compared to the other four treatment conditions [2, 5]: ~40% | CD9 (% by FACS) [3, 6]: 68.4% | CD184 (% by FACS) [3, 6]: 67.8% | CD9 (% by FACS) [3, 7]: 0.2% | CD184 (% by FACS) [3, 7]: 96.5% | definitive endoderm level versus 3 μM MCX plus 100 ng/ml GDF-8 or 20 ng/ml WNT-3A plus 100 ng/ml Activin A on day one ([3]; 3 μM MCX in the absence of a TGF-β family member on day one): comparable | CD9 (% by FACS) [3, 8]: 0.2% | CD184 (% by FACS) [3, 8]: 96.0% | CD9 (% by FACS) [3, 9]: 1.0% | CD184 (% by FACS) [3, 9]: 95.2% | definitive endoderm positive cells (CXCR4 positive, CD9 positive) ([3]; MCX at concentrations less than 2 μM): progressively fewer definitive endoderm positive cells | magnitude of induction of FGF4, FOXA2 and SOX17 compared to the other four conditions ([4]; 24 hours after the initiation of differentiation): much lower | expression of genes for pluripotency (NANOG and POU5F1/OCT4) versus starting cell population or other four conditions ([4]; by 24 hours): dramatically reduced | definitive endoderm by gene expression versus 20 ng/ml WNT-3A plus 100 ng/ml Activin A on day one ([4]; end of definitive endoderm formation): comparable | induction of genes T (brachyury), GATA4 and CDX2 versus WNT-3A+Activin A or the other three conditions ([4]; first 24 hours of differentiation): substantially higher

O=C([O-])O.[Na+] [Sodium bicarbonate]
CD9 (% by FACS) [3, 10]: 12.3% | CD99 (% by FACS) [3, 10]: 66.7% | cells expressing CXCR4, on average ([3]; 2.43 g/L sodium bicarbonate): 87.4% | CD9 (% by FACS) [3, 11]: 5.5% | CD99 (% by FACS) [3, 11]: 92.7% | cells expressing CXCR4, on average ([3]; 3.64 g/L sodium bicarbonate): 97.35%

GDF8: TGF-β family member, GDF8 (Catalog #120-00, Peprotech)
cells in G0/G1 of the cell cycle [2]: 48.5% | percentage of cells with EdU incorporation (mean of GDF8, WNT-3A, WNT-3A+Activin A and neat medium) [2]: 48.1% | average decrease in the number of cells in G0/G1 (GDF8, WNT-3A, WNT-3A+Activin A and neat medium) [2]: 13%

B1: WNT-3A: WNT-3A (Catalog #1324-WN-002, R&D Systems) (protein, UniProt P56704 19-352, looked up)
Protein Wnt-3a: SYPIWWSLAVGPQYSSLGSQPILCASIPGLVPKQLRFCRNYVEIMPSVAEGIKIGIQECQHQFRGRRWNCTTVHDSLAIFGPVLDKATRESAFVHAIASAGVAFAVTRSCAEGTAAICGCSSRHQGSPGKGWKWGGCSEDIEFGGMVSREFADARENRPDARSAMNRHNNEAGRQAIASHMHLKCKCHGLSGSCEVKTCWWSQPDFRAIGDFLKDKYDSASEMVVEKHRESRGWVETLRPRYTYFKVPTERDLVYYEASPNFCEPNPETGSFGTRDRTCNVSSHGIDGCDLLCCGRGHNARAERRREKCRCVFHWCCYVSCQECTRVYDVHTCK
cells in G0/G1 of the cell cycle [2]: 55.8% | percentage of cells with EdU incorporation (mean of GDF8, WNT-3A, WNT-3A+Activin A and neat medium) [2]: 48.1% | average decrease in the number of cells in G0/G1 (GDF8, WNT-3A, WNT-3A+Activin A and neat medium) [2]: 13%
